How the values were obtained:
[1] = AE maximal score at Adenosine A1 receptor
[2] = AE maximal score at Adenosine A3 receptor
[3] = AE maximal score at Adenosine A2A receptor

SMILES: CC(=O)Oc1ccc2c(c1)CCc1sc(N)nc1-2
- EC50 [1]: 158 µM

SMILES: COc1cc2c(cc1OC)-c1nc(N)sc1C2
- EC50 [2]: 794 µM
- EC50 [3]: 1 pM

SMILES: COc1ccc2c(c1)CCc1sc(N)nc1-2
- EC50 [1]: 0.002 µM
